Experimental data as given in patent publication US20220125897A1, “Antithrombin-III Treatment of Traumatic Brain Injury” (THE TRUSTEES OF THE UNIVERSITY OF PENNSYLVANIA, priority 2020, published 2022).

Tests used:
[1] = tested on: CD1 mice, controlled cortical impact (CCI) severe TBI model; assay: Pial intravital microscopy: in vivo LEU/EC interactions; settings: pial penumbral microcirculation, 48 hours after CCI, doses 0.5 and 24 hours after CCI, ±SEM
Description: (§1) Procedures received approval from the University of Pennsylvania Institutional Animal Care and Use Committee. CD1 adult male mice (25-30 g) (Charles River Laboratories; Wilmington, Mass.) were acclimated in standard housing with ad libitum water and chow for 5 days before experiments and immediately after recovery from brain injury. Mice underwent controlled cortical impact (CCI) or sham craniotomy (SHAM) and then received one of three agents: 1) subcutaneous enoxaparin (ENX, 1.5 mg/kg) (Winthrop, Sanofi-Aventis; Bridgewater, N.J.); intravenous (femoral vein) pharmaceutical grade antithrombin-III (AT-III, 250 IU/kg, donated by Grifols S.A. (Durham, N.C.); or 3) an equal volume of IV normal saline (0.9% NS, Baxter; Deerfield, Ill.). Doses were administered 0.5 and 24 hours after the CCI (FIG. 1).
(§2) Seventy-one (71) mice were randomly assigned to one of six groups: 1) sham craniotomy and vehicle (VH, 0.9% normal saline, Baxter Healthcare Corporation; Deerfield, Ill.), (SHAM +VEH, n=9); 2) sham craniotomy and ENX (SHAM+ENX, n=8); 3) sham craniotomy and AT-III (SHAM+AT-III, n=9); 4) TBI and vehicle (CCI+VEH, n=19); TBI and ENX (CCI+ENX, n=13); and 6) TBI and AT-III (CCI+AT-III, n=13).
(§3) CCI was used to replicate TBI through a well-validated rodent model (16, 17). Briefly, on day 1, mice were anesthetized with intraperitoneal ketamine (Hospira; Lake Forest, Ill.), xylazine (Alcorn; Decatur, Ill.), and acepromazine (Boehringer Ingelheim; St. Joseph, Mo.) (KXA: 100, 10, 1 mg/kg, respectively) and place prone in a stereotactic device. After scalp exposure, a left-sided 4-mm craniotomy was created between bregma and lambda structures using a dental drill (Henry Schein; Melville, N.Y.) without violating the dura.
In vivo assessment of cerebral microcirculation using pial intravital microscopy was performed 48 hours after CCI as described previously, as this is the optimal time to observe peak leukocyte mobilization to the BBB penumbra after brain injury. Under KXA anesthesia, the right jugular vein was cannulated and a second 2.5 mm craniotomy was created immediately anterior to the first and covered with a 5 mm coverslip (Fisher Scientific; Waltham, Mass.). […]
Video data captured at 590 nm λ were imported into analysis software (NIS-Elements, Nikon Instruments; Melville, N.Y.) and LEU/EC interactions were counted by a blinded observer quantifying the following parameters: 1) LEU transit: mean number of labelled EU crossing a 100 μm long venular segment in 60 seconds; and 2) LEU adhesion: number of LEU stationary for at least 30 seconds during the recording period. Fluorescently labelled spherical cells measuring 7 to 12 μm were counted as LEU and interactions were reported as the number of cells/100 μm per minute (FIGS. 2A and 2B).

[2] = tested on: CD1 mice, controlled cortical impact (CCI) severe TBI model; assay: Pial intravital microscopy: FITC-albumin leakage (microvascular permeability); format: in vivo; settings: for Cerebrovascular FITC-albumin leakage: 48 hours after CCI, doses 0.5 and 24 hours after CCI, ±SEM
Description: as §1, §2
CCI was used to replicate TBI through a well-validated rodent model (16, 17). Briefly, on day 1, mice were anesthetized with intraperitoneal ketamine (Hospira; Lake Forest, Ill.), xylazine (Alcorn; Decatur, Ill.), and acepromazine (Boehringer Ingelheim; St. Joseph, Mo.) (KXA: 100, 10, 1 mg/kg, respectively) and place prone in a stereotactic device. After scalp exposure, a left-sided 4-mm craniotomy was created between bregma and lambda structures using a dental drill (Henry Schein; Melville, N.Y.) without violating the dura. […]
Footage captured under the 488 nm filter was evaluated for fluorescence intensity from FITC-labelled albumin measured in three distinct regions within the vessel (venular intensity) and outside the vessel walls (perivenular intensity) (FIGS. 3A and 3B). […]

[3] = tested on: CD1 mice, controlled cortical impact (CCI) or sham craniotomy; assay: Brain water content (brain edema, wet-to-dry ratio); format: in vivo; settings: for Contralateral (%) Mean brain water content / Contralateral (%) Median brain water content / Ipsilateral (%) Mean brain water content / Ipsilateral (%) Median brain water content / Ratio (ipsi/contra) brain water content: 48 hours after CCI; for cerebral edema as compared to CCI+VEH: 48 hours, p>0.05
Description: as §1, §2, §3
Forty-eight hours after CCI, mice were sacrificed and excised brains were separated into injured (ipsilateral) and uninjured (contralateral) hemispheres. Wet weight (WW) was immediately assessed. Dry weight (DW) was assessed after 72 hours of dehydration at 70° C. Tissue water content was calculated using wet-to-dry ratios: % water content=100×(WW−DW)/WW.

[4] = Body weight loss after CCI; format: in vivo; settings: CCI mice, 48 hours after TBI; (W0h-W48h)/W0h×100%; ±SEM
Description: as §1, with “1). […]” for “1).”
(§4) Animal body weights (BW) were obtained just before (W0h) as well as 24 and 48 hours after CCI with animal weight loss expressed as a ratio: (W0h-W24h or W48h)/W0h×100%. Murine neurologic function was assessed by the modified Stroke Garcia Neurologic Test (GNT) assessing motor, sensory, reflex, and balance ability at 24 hours and 48 hours after TBI. […]

[5] = tested on: CD1 mice, controlled cortical impact (CCI) severe TBI model; assay: Garcia Neurological Test (GNT); format: in vivo; settings: injured (CCI) mice, 24 or 48 hour post-TBI; maximum 18 points; ±SEM
Description: as §1, with “1). […]” for “1).”
as §4

[6] = tested on: CD1 mice, controlled cortical impact (CCI) severe TBI model; assay: Morris water maze cued learning trials; format: in vivo
Description: (§5) Experimental procedures were conducted with the approval of the University of Pennsylvania Institutional Animal Care and Use Committee. CD1 adult male mice (25-30 g) (Charles River Laboratories, Wilmington, Mass.) were acclimatized in standard housing with water and chow ad libitum for 7 days before experiments after which they underwent sham craniotomy or craniotomy accompanied by controlled cortical impact (CCI), a well-validated severe TBI rodent model (Pascual et al., Am J Surg. 2013;206(6):840-846; Smith et al., J Neurotrauma. 1995; 12(2):169-178). Mice were anesthetized with intraperitoneal ketamine (Hospira, Lake Forest, Ill.), xylazine (Akorn, Decatur, Ill.), and acepromazine (Boehringer Ingelheim, St. Joseph, Mo.) (100, 10, 1 mg/kg, respectively) followed by subcutaneous bupivacaine (0.5 mg/mL) for longer-term analgesia. After creation of a left-sided, 4-mm craniotomy between bregma and lambda sutures, the exposed left parietotemporal cortex was injured via a controlled cortical impactor (AMS201; AmScien Instruments, Richmond, Va.). Controlled cortical impact settings (3-mm-diameter impactor tip, impact velocity of 6 m/s, and cortical deformation depth of 1 mm) replicated severe TBI (Smith et al., J Neurotrauma. 1995; 12(2):169-178). Rodents were then randomly allocated to receive either: (1) intravenous (via femoral vein) pharmaceutical grade AT-III (250 IU/kg, donated by Grifols S. A., Durham, N.C.) or (2) an equal volume of normal saline IV (0.9% NS; Baxter; Deerfield, Ill.) as a vehicle (VEH). Doses were administered 0.5 and 24 hours after CCI (FIG. 1) as determined by previous published reports and the manufacturer's recommendations (ElSaadani et al., J Trauma Acute Care Surg. 2021; 90(2):274-280; Uchiba et al., Thromb Res. 1998; 89(5):233-241; Uchiba et al., Semin Thromb Hemost. 1997; 23(6):583-590).
Fifteen mice (ElSaadani et al., J Trauma Acute Care Surg. 2021; 90(2):274-280) were randomized into three groups: (1) sham craniotomy (no CCI) plus VEH (SHAM, n=5), (2) TBI and VEH (CCI-VEH, n=5), and (3) TBI and AT-III (CCI−AT-III, n=5).
Learning and memory were evaluated in a Morris water maze (MWM) using a previously published protocol (Vorhees et al., Nat Protoc. 2006; 1(2):848-858; Jacovides et al., J Trauma Acute Care Surg. 2019; 87(3):552-558). After a recovery period of 6 days, each animal underwent daily. MWM trials of learning and memory for 9 consecutive days. […] All swimming trials were conducted and scored by the same operator, at the same time of day on all experiment days incorporating a computerized video-tracking and recording system over the pool to facilitate analysis (Ethovision; Noldus, Leesburg, Va.). […]

[7] = tested on: CD1 mice, controlled cortical impact (CCI) severe TBI model; assay: Morris water maze spatial learning trials; format: in vivo; settings: ±SEM
Description: as §5, with “Controlled cortical impact settings (3-mm-diameter impactor tip, impact velocity of 6 m/s, and cortical deformation depth of 1 mm) replicated severe TBI (Smith et al., J Neurotrauma. 1995; 12(2):169-178). Rodents were then randomly allocated to receive either: (1) intravenous (via femoral vein) pharmaceutical grade AT-III (250 IU/kg, donated by Grifols S. A., Durham, N.C.) or (2) an equal volume of normal saline IV (0.9% NS; Baxter; Deerfield, Ill.) as a vehicle (VEH).” left out, “23(6):583-590). […]” for “23(6):583-590).”
(§6) Learning and memory were evaluated in a Morris water maze (MWM) using a previously published protocol (Vorhees et al., Nat Protoc. 2006; 1(2):848-858; Jacovides et al., J Trauma Acute Care Surg. 2019; 87(3):552-558). […] All swimming trials were conducted and scored by the same operator, at the same time of day on all experiment days incorporating a computerized video-tracking and recording system over the pool to facilitate analysis (Ethovision; Noldus, Leesburg, Va.). […]
On postcraniotomy days 9 to 13, daily spatial learning trials evaluated the animals' ability to use environmental visual cues to locate and reach the platform. […]

[8] = tested on: CD1 mice, controlled cortical impact (CCI) severe TBI model; assay: Morris water maze probe trials (long-term memory); format: in vivo; settings: days 10 to 14 post-TBI, CCI mice vs CCI-VEH
Description: Experimental procedures were conducted with the approval of the University of Pennsylvania Institutional Animal Care and Use Committee. CD1 adult male mice (25-30 g) (Charles River Laboratories, Wilmington, Mass.) were acclimatized in standard housing with water and chow ad libitum for 7 days before experiments after which they underwent sham craniotomy or craniotomy accompanied by controlled cortical impact (CCI), a well-validated severe TBI rodent model (Pascual et al., Am J Surg. 2013;206(6):840-846; Smith et al., J Neurotrauma. 1995; 12(2):169-178). […] Doses were administered 0.5 and 24 hours after CCI (FIG. 1) as determined by previous published reports and the manufacturer's recommendations (ElSaadani et al., J Trauma Acute Care Surg. 2021; 90(2):274-280; Uchiba et al., Thromb Res. 1998; 89(5):233-241; Uchiba et al., Semin Thromb Hemost. 1997; 23(6):583-590). […]
as §6

Row | Substance | LEU adhesion [1] [LEUs/100 um/min] | LEU transit [1] [LEUs/100 um/min] | Cerebrovascular FITC-albumin leakage [2] [%] | decrease of macromolecular leakage (blood brain barrier integrity) ([2]; pial vessels, vs untreated injured) | Contralateral (%) Mean brain water content [3] [%] | Contralateral (%) Median brain water content [3] [%] | Ipsilateral (%) Mean brain water content [3] [%] | Ipsilateral (%) Median brain water content [3] [%] | Ratio (ipsi/contra) brain water content [3] | cerebral edema as compared to CCI+VEH [3] | Body weight loss [4] [%] | GNT score (stroke functional recovery score) [5] | time to reach the exposed platform, course over days ([6]; cued learning trials, compared with SHAM) | swimming velocity ([6]; cued learning trials, days 6-8 post-TBI, ±SEM) [cm/s] | mean time to reach the platform ([6]; cued learning trials, ±SEM) [s] | cumulative cued learning (overall mean group time to reach the platform) ([6]; throughout days 6 to 8 post-TBI, ±SEM) [s] | mean group cumulative swimming time ([7]; all 5 days of spatial learning trials, CCI mice) [s] | swimming time (time to reach platform) ([7]; day 13, last day of spatial learning trials, CCI mice) [s] | overall swim distance ([7]; spatial learning trials, days 9 to 13, CCI mice) [cm] | cognitive recovery: memory [8]
1 | antithrombin-III [AT-III] | 3.2±0.5 | 24.8±2.1 | 41.9±2.8 | more than 25% | 75.12 | 77.7 | 77.64 | 78.6192 | 1.033 | did not significantly reduce cerebral edema | 8.4±1 | 13.1±0.3 | eventually reached SHAM times by day 7 | 28.4 ± 1.1 | 20.1 ± 3.1 | 20.3 ± 2.1 | 17.6 ± 1.5 | 17.6 ± 3.9 | 306.9±27.9 | not memory
2 | enoxaparin [ENX, reference compound] | 3.5±0.8 | 24.9±2.8 | 49.1±2.3 | – | 77.26 | 77.38 | 78.3674 | 79.03 | 1.014 | did not significantly reduce cerebral edema | – | 12.4±0.4 | – | – | – | – | – | – | – | –
